According to PMC8815882, “Screening the pandemic response box identified benzimidazole carbamates, Olorofim and ravuconazole as promising drug candidates for the treatment of eumycetoma” (PLoS Neglected Tropical Diseases, 2022):
Read-outs that look alike come from different tables or passages of the source.

Test system: M. mycetomatis genome strain MM55
Experiment: CLSI M38-A2 based in vitro susceptibility screening (XTT or resazurin), growth at fixed concentration
Type: cell-based, Madurella mycetomatis
Conditions: Madurella mycetomatis; for Percent fungal survival at 100 µM: read-out: Percentage survival at 100um, 100 uM A (second replicate column)
[1] = mean of three replicates, read-out: Percentage survival at 25um, 25 uM mean
[2] = replicate A, read-out: Percentage survival at 25um, 25 um A
[3] = replicate B, read-out: Percentage survival at 25um, 25 uM B
[4] = replicate C, read-out: Percentage survival at 25um, 25 uM C
[5] = mean of three replicates, read-out: Percentage survival at 100um, 100 uM mean
[6] = replicate 1, read-out: Percentage survival at 100um, 100 uM A (first replicate column)
[7] = replicate 3, read-out: Percentage survival at 100um, 100 uM A (third replicate column)
[8] = mean of replicates, read-out: Percentage survival at 25um, 25 uM mean
[9] = mean of replicates, read-out: Percentage survival at 100um, 100 uM mean
[10] = replicate 1, read-out: Percentage survival at 100um, 100 uM A
[11] = replicate 2, read-out: Percentage survival at 100um, 100 uM A
[12] = replicate 3, read-out: Percentage survival at 100um, 100 uM A
[13] = mean, read-out: Percentage survival at 25um, 25 uM mean
[14] = mean, read-out: Percentage survival at 100um, 100 uM mean
[15] = replicate (first column), read-out: Percentage survival at 100um, 100 uM A
[16] = replicate (second column), read-out: Percentage survival at 100um, 100 uM A
[17] = replicate (third column), read-out: Percentage survival at 100um, 100 uM A
[18] = mean of three, M. mycetomatis MM55, read-out: Percentage survival at 25um, 25 uM mean
[19] = replicate A, M. mycetomatis MM55, read-out: Percentage survival at 25um, 25 um A
[20] = replicate B, M. mycetomatis MM55, read-out: Percentage survival at 25um, 25 uM B
[21] = replicate C, M. mycetomatis MM55, read-out: Percentage survival at 25um, 25 uM C
[22] = mean of three, M. mycetomatis MM55, read-out: Percentage survival at 100um, 100 uM mean
[23] = replicate 1, M. mycetomatis MM55, read-out: Percentage survival at 100um, 100 uM A (first replicate column)
[24] = replicate 2, M. mycetomatis MM55
[25] = replicate 3, M. mycetomatis MM55, read-out: Percentage survival at 100um, 100 uM A (third replicate column)

Q: How did the activity at 25 µM [1] turn out when `CC(Cc1ccccc1)C(=O)Nc1ccc(Cl)cc1C(=O)O` (stereo not drawn) [MMV1579781] was run?
A: 92.5%

Q: What about the activity at 25 µM [2] of the same compound?
A: 104%

Q: And the activity at 25 µM [3]?
A: 93.1%

Q: What about the activity at 25 µM [4] of the same compound?
A: 80.7%

Q: And the activity at 100 µM [5]?
A: 85.9%

Q: What about the activity at 100 µM [6] of the same compound?
A: 87.4%

Q: And the Percent fungal survival at 100 µM (replicate 2)?
A: 82.1%

Q: And the activity at 100 µM [7]?
A: 88.1%

Q: What does the source list for `Cc1cccc(CC(=O)N[C@H]2CCOC2=O)c1` [MMV1579782]?
A: activity at 25 µM [8]: 94%; activity at 25 µM [2]: 95.3%; activity at 25 µM [3]: 93.9%; activity at 25 µM [4]: 92.9%; activity at 100 µM [9]: 90.9%; activity at 100 µM [10]: 95.1%; activity at 100 µM [11]: 88.4%; activity at 100 µM [12]: 89.2%

Q: What does the source list for `CCCCSc1nc(N)c2[nH]c(=O)c(=O)n(Cc3ccccc3)c2n1` [MMV1579783]?
A: activity at 25 µM [13]: 74.7%; activity at 25 µM [2]: 95.5%; activity at 25 µM [3]: 58.6%; activity at 25 µM [4]: 70%; activity at 100 µM [14]: 54.9%; activity at 100 µM [15]: 84%; activity at 100 µM [16]: 5.11%; activity at 100 µM [17]: 75.6%

Q: What does the source list for `O=C(Nc1ccccc1C(=O)O)c1cccc(Oc2ccccc2)c1` [MMV1579784]?
A: activity at 25 µM [18]: 90.7%; activity at 25 µM [19]: 75.3%; activity at 25 µM [20]: 85.5%; activity at 25 µM [21]: 111%; activity at 100 µM [22]: 90.8%; activity at 100 µM [23]: 88.1%; Percent fungal survival at 100 µM [24]: 112%; activity at 100 µM [25]: 72.2%

Q: For `N#CCN1C(=O)COc2cc(F)c(N3C(=O)c4ccccc4C3=O)cc21` [MMV1579785], which activity at 25 µM [8] is on record?
A: 81.2%

Q: What about the activity at 25 µM [2] of the same compound?
A: 78.3%

Q: What about the activity at 25 µM [3] of the same compound?
A: 91.5%

Q: What about the activity at 25 µM [4] of the same compound?
A: 73.8%

Q: And the activity at 100 µM [9]?
A: 88.3%

Q: And the activity at 100 µM [10]?
A: 83.8%

Q: What about the activity at 100 µM [11] of the same compound?
A: 94.2%

Q: And the activity at 100 µM [12]?
A: 87%

Q: Which activity at 25 µM [18] does the source give for `NCCCc1ccccc1C(=O)Nc1ncc([N+](=O)O)s1` [MMV1579786] here?
A: 82.7%

Q: What about the activity at 25 µM [19] of the same compound?
A: 85.5%

Q: What about the activity at 25 µM [20] of the same compound?
A: 82.6%

Q: What about the activity at 25 µM [21] of the same compound?
A: 80.1%

Q: And the activity at 100 µM [22]?
A: 76.6%

Q: And the activity at 100 µM [23]?
A: 71.4%

Q: What about the Percent fungal survival at 100 µM [24] of the same compound?
A: 83.2%

Q: And the activity at 100 µM [25]?
A: 75.1%

Q: For `O=C(CP(=O)(O)O)NCCc1cccc(Oc2ccccc2)c1` [MMV1579787], which activity at 25 µM [13] is on record?
A: 79.8%

Q: And the activity at 25 µM [2]?
A: 84.6%

Q: And the activity at 25 µM [3]?
A: 81.7%

Q: And the activity at 25 µM [4]?
A: 73.2%

Q: And the activity at 100 µM [14]?
A: 46.3%

Q: What about the activity at 100 µM [15] of the same compound?
A: -0.0188%

Q: And the activity at 100 µM [16]?
A: 65.7%

Q: And the activity at 100 µM [17]?
A: 73.3%

Q: With `Cc1c(CN(C)C(=O)/C=C/c2cnc3c(c2)C(C)(C)C(=O)N3)oc2ccccc12` [MMV1579788] as the compound, how does the activity at 25 µM [8] read?
A: 75.8%

Q: What about the activity at 25 µM [2] of the same compound?
A: 69.6%

Q: And the activity at 25 µM [3]?
A: 89.2%

Q: And the activity at 25 µM [4]?
A: 68.5%

Q: And the activity at 100 µM [9]?
A: 90.5%

Q: What about the activity at 100 µM [10] of the same compound?
A: 57.9%

Q: What about the activity at 100 µM [11] of the same compound?
A: 71.3%

Q: What about the activity at 100 µM [12] of the same compound?
A: 142%

Q: What does the source list for `N=C(N)c1ccc(COc2ccc(Cl)cc2)cc1` [MMV1579844]?
A: activity at 25 µM [18]: 73%; activity at 25 µM [19]: 69.6%; activity at 25 µM [20]: 72.8%; activity at 25 µM [21]: 76.5%; activity at 100 µM [22]: 73.6%; activity at 100 µM [23]: 55.9%; Percent fungal survival at 100 µM [24]: 97.7%; activity at 100 µM [25]: 67.2%

Q: With `O=C(NCc1cccc2ccccc12)c1cccs1` [MMV1579845] as the compound, how does the activity at 25 µM [13] read?
A: 55.9%

Q: And the activity at 25 µM [2]?
A: 59.6%

Q: And the activity at 25 µM [3]?
A: 48.9%

Q: And the activity at 25 µM [4]?
A: 59.3%

Q: And the activity at 100 µM [14]?
A: 35%

Q: What about the activity at 100 µM [15] of the same compound?
A: 90%

Q: What about the activity at 100 µM [16] of the same compound?
A: 6.29%

Q: And the activity at 100 µM [17]?
A: 8.86%

Q: Which results are given for `COc1cc(Cc2cc(N)nc(N)n2)cc(OC)c1OC` [MMV1579846]?
A: activity at 25 µM [8]: 80.9%; activity at 25 µM [2]: 87.9%; activity at 25 µM [3]: 75.2%; activity at 25 µM [4]: 79.5%; activity at 100 µM [9]: 95.4%; activity at 100 µM [10]: 83.5%; activity at 100 µM [11]: 94.2%; activity at 100 µM [12]: 108%

Q: Which results are given for `Cc1ccn2c(C(=O)NCc3ccccc3)c(C)nc2c1` [MMV1579847]?
A: activity at 25 µM [1]: 82.9%; activity at 25 µM [2]: 90.2%; activity at 25 µM [3]: 66.1%; activity at 25 µM [4]: 92.5%; activity at 100 µM [5]: 61.9%; activity at 100 µM [6]: 72.5%; Percent fungal survival at 100 µM (replicate 2): 55.8%; activity at 100 µM [7]: 57.5%
